# Measured values: patent US6872690B2, “Herbicidal 2-alkynyl-pyri (mi) dines” (WYETH, priority 2001, dated 2005)
# Experiments:
# Assay type in all cases: in vivo
# Abutilon theophrasti [1] = test: Pre-emergence test; conditions: 0.400 kg/ha, 3 weeks after treatment
# How it was run: (§1)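 Pre-em soil spray on prepared horticultural loam just after sowing; acetone stock + 0.4% alkylphenol ethoxylate, water-diluted; 0.013–0.400 kg/ha, 900 L/ha spray volume. Scored vs untreated sown pots at 2–4 wk.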
# Alopecurus myosuroides [2] = test: Pre-emergence test; conditions: 0.400 kg/ha, 3 weeks after treatment
# How it was run: as §1
# Ambrosia artemisifolia [3] = test: Pre-emergence test; conditions: 0.400 kg/ha, 3 weeks after treatment
# How it was run: as §1
# Cassia obtusifolia = test: Pre-emergence test; conditions: 0.400 kg/ha, 3 weeks after treatment
# How it was run: as §1
# Digitaria sanguinalis = test: Pre-emergence test; conditions: 0.400 kg/ha, 3 weeks after treatment
# How it was run: as §1
# Echinochloa crus-galli [4] = test: Pre-emergence test; conditions: 0.400 kg/ha, 3 weeks after treatment
# How it was run: as §1
# Galium aparine = test: Pre-emergence test; conditions: 0.400 kg/ha, 3 weeks after treatment
# How it was run: as §1
# Glycine max [5] = test: Pre-emergence test; conditions: 0.400 kg/ha, 3 weeks after treatment
# How it was run: as §1
# Ipomoea hederacea [6] = test: Pre-emergence test; conditions: 0.400 kg/ha, 3 weeks after treatment
# How it was run: as §1
# Lamium purpureum = test: Pre-emergence test; conditions: 0.400 kg/ha, 3 weeks after treatment
# How it was run: as §1
# Matricaria inodora [7] = test: Pre-emergence test; conditions: 0.400 kg/ha, 3 weeks after treatment
# How it was run: as §1
# Orysa sativa = test: Pre-emergence test; conditions: 0.400 kg/ha, 3 weeks after treatment
# How it was run: as §1
# Setaria viridis [8] = test: Pre-emergence test; conditions: 0.400 kg/ha, 3 weeks after treatment
# How it was run: as §1
# Stellaria media = test: Pre-emergence test; conditions: 0.400 kg/ha, 3 weeks after treatment
# How it was run: as §1
# Triticum aestivum [9] = test: Pre-emergence test; conditions: 0.400 kg/ha, 3 weeks after treatment
# How it was run: as §1
# Zea mays [10] = test: Pre-emergence test; conditions: 0.400 kg/ha, 3 weeks after treatment
# How it was run: as §1
# Abutilon theophrasti [11] = test: Post-emergence herbicidal activity test; conditions: 0.200 kg/ha, 2-4 weeks after treatment
# How it was run: (§2)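 Sprayed post-emergence at about 0.025 to 0.4 kg per hectare per pot, using water-diluted acetone solutions, then assessed by visual rating after 2 to 4 weeks in the greenhouse.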
# Alopecurus myosuroides [12] = test: Post-emergence herbicidal activity test; conditions: 0.200 kg/ha, 2-4 weeks after treatment
# How it was run: as §2
# Ambrosia artemisifolia [13] = test: Post-emergence herbicidal activity test; conditions: 0.200 kg/ha, 2-4 weeks after treatment
# How it was run: as §2
# Echinochloa crus-galli [14] = test: Post-emergence herbicidal activity test; conditions: 0.200 kg/ha, 2-4 weeks after treatment
# How it was run: as §2
# Glycine max [15] = test: Post-emergence herbicidal activity test; conditions: 0.200 kg/ha, 2-4 weeks after treatment
# How it was run: as §2
# Ipomoea hederacea [16] = test: Post-emergence herbicidal activity test; conditions: 0.200 kg/ha, 2-4 weeks after treatment
# How it was run: as §2
# Matricaria inodora [17] = test: Post-emergence herbicidal activity test; conditions: 0.200 kg/ha, 2-4 weeks after treatment
# How it was run: as §2
# Setaria viridis [18] = test: Post-emergence herbicidal activity test; conditions: 0.200 kg/ha, 2-4 weeks after treatment
# How it was run: as §2
# Triticum aestivum [19] = test: Post-emergence herbicidal activity test; conditions: 0.200 kg/ha, 2-4 weeks after treatment
# How it was run: as §2
# Zea mays [20] = test: Post-emergence herbicidal activity test; conditions: 0.200 kg/ha, 2-4 weeks after treatment
# How it was run: as §2
structure (smiles),measurement,setting,value
Cc1cc(C#C[Si](C)(C)C)nc(Oc2cc(C(F)(F)F)nn2C)c1 [Example 14],Assessment (pre-emergence application) ABUTH,Abutilon theophrasti [1],0 (0-No effect)
same,Assessment (pre-emergence application) ALOMY,Alopecurus myosuroides [2],7 (7-Good herbicidal effect)
same,Assessment (pre-emergence application) MBEL,Ambrosia artemisifolia [3],9 (9-Complete kill)
same,Assessment (pre-emergence application) CASOB,Cassia obtusifolia,3 (3-Moderate effect)
same,Assessment (pre-emergence application) DIGSA,Digitaria sanguinalis,9 (9-Complete kill)
same,Assessment (pre-emergence application) ECHCG,Echinochloa crus-galli [4],5 (5-Definite injury)
same,Assessment (pre-emergence application) GALAP,Galium aparine,1 (1-Trace effect)
same,Assessment (pre-emergence application) GLXMA,Glycine max [5],2 (2-Slight effect)
same,Assessment (pre-emergence application) IPOHE,Ipomoea hederacea [6],1 (1-Trace effect)
same,Assessment (pre-emergence application) LAMPU,Lamium purpureum,9 (9-Complete kill)
same,Assessment (pre-emergence application) MATIN,Matricaria inodora [7],8 (8-Approaching complete kill)
same,Assessment (pre-emergence application) ORYSA,Orysa sativa,0 (0-No effect)
same,Assessment (pre-emergence application) SETVI,Setaria viridis [8],5 (5-Definite injury)
same,Assessment (pre-emergence application) STEME,Stellaria media,9 (9-Complete kill)
same,Assessment (pre-emergence application) TRZWA,Triticum aestivum [9],1 (1-Trace effect)
same,Assessment (pre-emergence application) ZEAMX,Zea mays [10],1 (1-Trace effect)
same,Post-emergence application ABUTH,Abutilon theophrasti [11],1 (1-Trace effect)
same,Post-emergence application ALOMY,Alopecurus myosuroides [12],3 (3-Moderate effect)
same,Post-emergence application AMBEL,Ambrosia artemisifolia [13],3 (3-Moderate effect)
same,Post-emergence application ECHCG,Echinochloa crus-galli [14],1 (1-Trace effect)
same,Post-emergence application GLXMA,Glycine max [15],4 (4-Injury)
same,Post-emergence application IPOHE,Ipomoea hederacea [16],8 (8-Approaching complete kill)
same,Post-emergence application MATIN,Matricaria inodora [17],5 (5-Definite injury)
same,Post-emergence application SETVI,Setaria viridis [18],3 (3-Moderate effect)
same,Post-emergence application TRZWA,Triticum aestivum [19],1 (1-Trace effect)
same,Post-emergence application ZEAMX,Zea mays [20],1 (1-Trace effect)
